Reference: patent US6376484B1, “Tetrazole compounds and pharmaceutical agents containing such derivative as an active ingredient” (Ono Pharmaceutical Co., Ltd., priority 1995, dated 2002)

Biological target: T1, human ICE (IL-1β converting enzyme) (Homo sapiens, UniProt P29466)
T1 sequence (P29466 120-297 limits assumed): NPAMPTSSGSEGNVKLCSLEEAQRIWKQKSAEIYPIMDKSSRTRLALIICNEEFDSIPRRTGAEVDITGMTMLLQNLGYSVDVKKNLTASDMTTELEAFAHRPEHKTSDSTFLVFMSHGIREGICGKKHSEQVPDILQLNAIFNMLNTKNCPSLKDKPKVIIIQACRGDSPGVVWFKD
T1 sequence (P29466 317-404 limits assumed): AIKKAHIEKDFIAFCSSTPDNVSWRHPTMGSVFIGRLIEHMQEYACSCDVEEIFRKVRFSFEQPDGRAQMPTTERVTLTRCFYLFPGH
Assay: Assay for IL-1β converting enzyme (ICE) inhibition, fluorogenic substrate Ac-Tyr-Val-Ala-Asp-MCA
Assay type: biochemical
Details: human ICE solution, 37° C., fluorescence, read-out: IC50, ICE inhibitory activity
Description: (1) Assay for IL-1β converting enzyme
The reaction mixture contains, for example, 20 mM of HEPES-NaOH pH7.4, 10 mM of KOH, 1.5 mM of MgCl2, 0.1 mM of EDTA and 10% glycerol. Various concentrations of test compounds (50 μl), human ICE solution (50 μl) and various concentrations of substrate (Ac-Tyr-Val-Ala-Asp-MCA) were mixed and incubated at 37° C. Fluorescence intensity was measured at […].
In the aboved example method,
HEPES is 4-(2-Hydroxyethyl)-1-piperazineethane-sulfonic acid,
EDTA is Ethylenediamine tetraacetate, and
Ac-Tyr-Val-Ala-Asp-MCA is Acetyl-L-tyrosyl-L-valyl-L-alanyl-L-asparaginic acid 4-methyl-coumarinyl-7-amide.

IC50: 30 nM
Structure (SMILES): CC(C)[C@H](NC(=O)CCc1ccccc1)C(=O)N[C@@H](C)C(=O)NC(CC(=O)O)C(=O)Cn1nnnc1Cc1c(Cl)cccc1Cl (stereo partly drawn) [Example 2(1), N-((N-(3-phenylpropionyl)-L-valyl)-L-alanyl)-3-amino-4-oxo-5-(5-(2,6-dichlorophenylmethyl)tetrazol-1-yl)pentanoic acid]
